PubChem BioAssay (NCI)
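48-hour exposure; five concentrations; linearly interpolated endpoints. Abbreviation: GI50, concentration required for 50% inhibition of growth. The concentration for full growth arrest is given as TGI.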

Tests used:
Experiment in all cases: DTP human tumour cell line panel, 48 h
RXF 393 renal = test system: RXF 393 renal
786-0 renal = test system: 786-0 renal
MOLT-4 leukemia = test system: MOLT-4 leukemia
M14 melanoma = test system: M14 melanoma
OVCAR-3 ovarian = test system: OVCAR-3 ovarian
BT-549 breast = test system: BT-549 breast
HOP-92 NSCLC = test system: HOP-92 NSCLC
HS 578T breast = test system: HS 578T breast
EKVX NSCLC = test system: EKVX NSCLC
TK-10 renal = test system: TK-10 renal

Row | Structure (SMILES) | TGI (RXF 393 renal) [µM] | TGI (786-0 renal) [µM] | TGI (MOLT-4 leukemia) [µM] | TGI (M14 melanoma) [µM] | TGI (OVCAR-3 ovarian) [µM] | TGI (BT-549 breast) [µM] | TGI (HOP-92 NSCLC) [µM] | TGI (HS 578T breast) [µM] | TGI (EKVX NSCLC) [µM] | TGI (TK-10 renal) [µM] | GI50 (RXF 393 renal) [µM] | GI50 (786-0 renal) [µM] | GI50 (MOLT-4 leukemia) [µM] | GI50 (M14 melanoma) [µM] | GI50 (OVCAR-3 ovarian) [µM] | GI50 (BT-549 breast) [µM] | GI50 (HOP-92 NSCLC) [µM] | GI50 (HS 578T breast) [µM] | GI50 (EKVX NSCLC) [µM] | GI50 (TK-10 renal) [µM]
1 | CC(C)CC1NC(=O)C(C(C)C)NC(=O)CC(C)COC(=O)C(CC(C)C)N(C)C(=O)C(C(C)C)NC(=O)C(C(C)C)OC1=O (centres undefined) | 35.2 | > 50 | > 50 | > 50 | > 50 | > 50 | > 50 | > 50 | > 50 |  |  |  |  |  |  |  |  |  |  | 
2 | N#CC1C(=O)NC(=O)C(C#N)C1c1ccc(Cl)c(Cl)c1 (centres undefined) | 50.5 | 41.7 | 62 | 56 | 67 | > 100 | > 100 | 65.6 | > 100 | 98.4 |  |  |  |  |  |  |  |  |  | 
3 | COn1cc(C(=O)N=C(SC)SC)c2ccccc21 | 96.2 | 46.9 | 30.1 | 48.1 | 51.5 | 63.3 | > 100 | 54.3 | 77.5 |  | 25 | 20.4 | 9.42 | 18.4 | 17.8 | 19.2 | 27.7 | 16.7 | 25 | 
4 | CCCCCCCCCCCCCCCC(N)c1ccccc1 (centres undefined) | 3.41 | 3.27 | 3.42 | 3.15 | 3.08 | 3.11 | 3.23 | 4.64 | 3.01 | 3.1 | 1.71 | 1.68 | 1.58 | 1.7 | 1.64 | 1.63 | 1.57 | 2.02 | 1.59 | 1.61
5 | CC(=O)N1c2ccc(-c3ccc(C(=O)O)cc3)cc2[C@H](Nc2ccc(Cl)cc2)C[C@@H]1C | 40.9 | 40.2 | 39.2 | 23.2 | 18.8 | 29.6 | 13.3 | > 57.9 | > 64 | 17.9 | 5.41 | 0.125 | 1.79 | 0.096 | 0.343 | 1.27 | 0.024 | 0.0549 | 0.452 | 0.0569
6 | O=C(N/N=C/c1cccc(O)c1)c1ccc(C(F)(F)F)nc1Nc1cccc(C(F)(F)F)c1 | 8.85 | 5.17 | 2.09 | 5.02 | 4.79 | 3.41 | 4.56 | 5.86 | 3.37 | 4.64 | 1.13 | 1.92 | 0.43 | 1.89 | 1.03 | 0.76 | 1.29 | 1.86 | 1.01 | 1.44
7 | O=C1C=C(OCC=C(Cl)Cl)C(=O)c2ccccc21 | 11.1 | > 100 | > 24 | 30.2 | 4.13 | > 30.3 | 9.28 | 8.47 | 28.2 | > 100 | 2.46 | 51.9 | 2.34 | 3.73 | 1.9 | 4.94 | 2.68 | 2.7 | 3.33 | 61.2
8 | CC(C)Cn1cnc2c(SCc3ccccn3)nc(N)nc21 | > 100 | > 100 |  | > 100 | > 100 | > 100 | > 100 | > 100 | > 100 | > 100 |  |  |  |  |  |  |  |  |  | 
9 | COC(=O)C1=C(O)C(C(=O)OC)[C@@]2(O)[C@@H](C(=O)OC)C(c3ccccc3Cl)C[C@@H]1[C@@H]2C(=O)OC (some centres undefined) | 35.4 | 19.5 | 20.7 |  | 16.1 | 33.8 | 54.2 | 43.7 | 38.3 | 25.4 | 4.37 | 5.22 | 3.31 |  | 4.48 | 7.65 | 16.1 | 10.1 | 19.4 | 10.3
10 | CN(C)c1ccc(/C=N/NC(=O)c2cnc3ccccc3c2)cc1 | 54.9 | > 100 |  | > 100 | > 100 | > 100 | > 100 | 63.5 | > 100 | > 100 |  |  |  |  |  |  |  |  |  | 
11 | COc1cc2c3c(n(CCCN4CCN(CCO)CC4)c(=O)c2cc1OC)-c1cc2c(cc1C3=O)OCO2 | 30.9 | 18 | 6.24 | 19.5 | 28.3 | 12.3 | > 100 | > 100 |  | 37 | 13.4 | 4.97 | 0.0899 | 6.23 | 13.2 | 2.35 | > 21.2 | > 100 |  | 15.5
12 | COc1ccc(CNC(=O)c2c(C)n([O-])c3cc(F)c(F)cc3[n+]2=O)cc1 | 23.4 | 30.6 | 21.2 | 24.4 | 21.6 | 26.8 | 32 | 5.96 |  | 27.1 | 8.2 | 16.9 | 4.61 | 12 | 10 | 13.8 | 14.9 | 2.11 |  | 14.1
13 | COc1ccc(OC)c(/C=C/C(=O)c2ccc3cc(OC)ccc3c2)c1 |  | > 50 | 26.1 | > 50 | 11.9 | > 37.4 | > 50 | > 50 | > 50 | > 50 |  | > 11.7 | 7.74 | > 23.4 | 1.64 | 7.01 | 12.4 | > 33.3 | > 12.3 | 3.84
14 | CNCC1CCn2c(c(C3=C(c4cn(C)c5ccccc45)C(=O)NC3=O)c3ccccc32)C1 (centres undefined) | 6.78 | 11 | 8.74 | 6.78 | 8.97 | 10.9 | 8.64 | 8.7 |  | 6.34 | 3.09 | 4.88 | 1.87 | 3.05 | 3.98 | 4.36 | 0.13 | 2.9 |  | 2.78
15 | NCCNc1ncnc2ccc(Cl)cc12 | > 100 | > 100 |  | > 100 | > 100 | > 100 | > 100 | > 100 | > 100 | > 100 |  |  |  |  |  |  |  |  |  | 
